In US10151756B2, “Predictive markers for polyamine inhibitor cancer therapies” (ARIZONA BOARD OF REGENTS ON BEHALF OF UNIVERSITY OF ARIZONA, priority 2012, dated 2018):
Entries after “also recorded” stand apart in the source; their conditions may differ.

What was measured:
[1] = in vivo; cited from earlier work
prostoglandin E2 (PGE2) = settings: 300 mg/day, one month; cited from earlier work
[2] = system: tumors harboring Ki-ras mutations; settings: AOM-treated rats; reduced from 90%; cited from earlier work
tumor putrescine levels = settings: rat-tumor model, DFMO infusion; cited from earlier work
Hmga2 3′ UTR = test: Hmga2 3' UTR luciferase reporter assay; type: cell-based
Experimental: Luciferase Reporter Assays.
Hmga2 3′ UTR reporter plasmids were obtained from Addgene (Plasmid 14785) and have been characterized in previous studies (Mayr et al., 2007). A mutated Hmga2 reporter plasmid with disrupted let-7 complementary sites was also obtained (Addgene plasmid 14792). HCT116 cells were transfected in 6-well plates with 1.5 μg firefly luciferase and 1.5 μg Hmga2 Renilla luciferase reporter plasmids. For functional analysis, 25 nM LNA directed against the let-7 family were transfected with appropriate plasmids. Firefly and renilla luciferase were measured 48 h after transfection using a Dual Luciferase Assay (Promega). Results were then normalized to firefly luciferase. Results are mean±SD.

[3] = system: colorectal cancer cells (HCT116); test: Non-coding RNA microarray of DFMO treated vs untreated cells; type: cell-based, human; settings: 96 h
Experimental: (§1) HCT116 cells were grown in DMEM media supplemented with 10% fetal bovine serum and cultured at 37° C. For reverse transcription, total RNA was extracted using mirVana RNA isolation kit and reverse transcription performed using Taqman Small RNA Assays with predesigned primer specific to mature let-7 (Applied Biosystems). […] Western blots were conducted using anti-HMGA2 (Cell Signaling), LIN28 (abcam), anti-V5 (Invitrogen), eIF5A1 (Epitomics), and Actin (Sigma). Locked Nucleic Acid (LNA) anti-sense oligos were purchased from Exiqon and directed against seed region of let-7 as described previously (Obad et al., 2011). Pre-designed Silencer Select siRNAs (Invitrogen) were obtained to specifically knockdown eIFSA isoforms. All transfections were conducted using Lipofectamine 2000 as described by manufacturer for up to 48 h. All bars show mean±s.d and statistical analysis was performed by using Student's t-test (*P<0.05; **P<0.01, ***P<0.001).
Non-Coding RNA Microarray.
Samples for miRNA profiling studies were processed by Asuragen Services (Austin, Tex.), according to the company's standard operating procedures. Following incoming sample quality control (QC) assessment, the 3′ ends of RNA molecules in total RNA samples were labeled with biotin according to the company's standard protocol. Labeled RNA (100 ng total RNA per sample) was purified and hybridized to Affymetrix GeneChip® miRNA Arrays (Affymetrix, Santa Clara, Calif.). Hybridization, washing, staining, imaging, and signal extraction were performed according to Affymetrix-recommended procedures. Arrays were scanned on an Affymetrix GeneChip® Scanner 3000 7G.
Signal Processing. The signal processing implemented for the Affymetrix miRChip is a multi-step process involving probe specific signal detection calls, background estimate and correction. For each probe, a global robust multichip average (RMA) background correction is performed with Median Polish summarization. Arrays within a specific analysis experiment are normalized together using Quantile normalization. Detection calls are based on a Wilcoxon rank-sum test of the miRNA probe signal compared to the distribution of signals from GC-content matched anti-genomic probes. The raw gene expression data (.cel files) were converted to expression values using the miRNAQCTool, an open-source package available through Affymetrix. […]. RMA selection was used as a normalization method. Permutation P-values were then calculated for the t-test comparison between the DFMO treated and untreated placebo plates. These P-values were then ranked and a candidate gene list was compiled, using false discovery rate (FDR), adjusted P-value cut-offs obtained by the linear step-up method described by Benjamini and Hochberg (1995).
Next, the mechanism by which polyamines modulate oncogenesis and the effects of polyamine depletion on non-coding RNA levels was investigated by using a non-coding RNA microarray platform containing 15,644 probes, which included 1105 human mature miRNAs. MicroRNAs (miRNAs) are small endogenous RNA species known to modulate cellular signaling predominantly by binding the 3′ untranslated region (UTR) of RNA species. Binding of miRNAs to its cognate target generally results in mRNA destabilization or translational repression (Filipowicz et al., 2008). As a result of the abilities of miRNAs to modulate signaling networks involved in both development and neoplastic diseases, miRNAs serve as attractive targets for disease intervention.

colon cancer cells = test: Measurements of intracellular polyamine content (HPLC); type: cell-based, human
From the text: Measurements of Intracellular Polyamine Content.
Cells were homogenized in 0.2 N HClO4. Acid-soluble and acid insoluble fractions were used to determine intracellular polyamines and protein content, respectively.
It was hypothesized that the polyamines, acting independently or via eIFSA, might affect levels of non-coding RNAs.

hsa-let-7i = test: Real-time quantitative RT-PCR of mature let-7i; type: cell-based, human
Experimental: as §1, with “Locked Nucleic Acid (LNA) anti-sense oligos were purchased from Exiqon and directed against seed region of let-7 as described previously (Obad et al., 2011).” left out, “All transfections were conducted using Lipofectamine 2000 as described by manufacturer for up to 48 h.” left out
RNA Isolation and Real-Time Quantitative RT-PCR.
Total RNA was extracted from cells using the miRVana RNA isolation kit (Ambion) and measured using Thermo Scientific NanoDrop 2000. miRNA levels were measured using an Applied Biosystems 7500 HT PCR instrument with Taqman microRNA assay kits. Controlled reactions were confirmed by excluding reverse transcriptase to confirm amplification from cDNA. Results were analyzed using comparative Ct method between untreated and treated cells. Statistical analysis was performed using two tailed Student's t-tests.

LIN28 = test: Immunoblot of LIN28 protein in HCT116 cells; type: cell-based, human
Experimental: as §1, with “Locked Nucleic Acid (LNA) anti-sense oligos were purchased from Exiqon and directed against seed region of let-7 as described previously (Obad et al., 2011).” left out, “All transfections were conducted using Lipofectamine 2000 as described by manufacturer for up to 48 h.” left out
(§2) Immunoblot Analysis and Quantification of Western Blot Results.
(§3) Protein concentrations were determined using BCA assay (Pierce). […] Membranes were washed three times for 10 min and subsequently secondary antibodies were incubated with anti-mouse and anti-rabbit horseradish peroxidase conjugated antibodies (Santa Cruz Biotechnologies). Proteins were visualized by chemoluminescence using Amersham Plus ECL reagent (GE Healthcare). Bands were quantified via Western blot analysis by applying ImageJ software analysis. […] Briefly, areas under the curves were assessed for each specific band and comparisons were calculated by setting corresponding control values as 100% and each condition corrected by actin.
(§4) The LNA probes were purchased from Exiqon and synthesized using a phosphorothioate backbone.

HCT116 cells = test: Cellular proliferation and viability (Vi-Cell counter, trypan blue exclusion); type: cell-based, human
Experimental: Cellular Proliferation. […] At each time point, cells were trypsinized with 500 μL of trypsin and resuspended with 1.5 mL DMEM supplemented with FBS. One milliliter of the resuspension was then loaded and analyzed using a Beckman-Coulter Vi-Cell Counter. Cellular viability was measured through the trypan blue exclusion assay.

HMGA2 = test: Immunoblot of HMGA2 protein in HCT116 cells; type: cell-based, human
Experimental: as §1, with “Locked Nucleic Acid (LNA) anti-sense oligos were purchased from Exiqon and directed against seed region of let-7 as described previously (Obad et al., 2011).” left out, “All transfections were conducted using Lipofectamine 2000 as described by manufacturer for up to 48 h.” left out
as §2, §3, §4

[4] = cited from earlier work
[5] = cited from earlier work; remark: listed apart in the source

## Cc1ccc(-c2cc(C(F)(F)F)nn2-c2ccc(S(N)(=O)=O)cc2)cc1 [celecoxib, 4-[5-(4-Methylphenyl)-3-(trifluoromethyl)pyrazol-1-yl]benzenesulfonamide]
[1]
  increase in rates of heart and blood vessel disease: 30%
  risk of gastrointestinal side effects: greater than 80%

## CC(C)Cc1ccc(C(C)C(=O)O)cc1 (stereo not shown) [ibuprofen]
Prostoglandin E2 (PGE2)
  prostoglandin E2 (PGE2) levels in flat mucosa: significant decrease

## CN1C(C(=O)Nc2ccccn2)=C(O)c2ccccc2S1(=O)=O [piroxicam, 4-hydroxy-2-methyl-N-2-pyridyl-2H-1,2-benzothiazine-3-carboxamide 1,1-dioxide]
[2]
  number of tumors harboring Ki-ras mutations: 25%

## NCCCC(N)(C(=O)O)C(F)F (racemic) [DFMO, 2-(difluoromethyl)-dl-ornithine]
Tumor putrescine levels
  decrease in tumor putrescine levels: 90%
Hmga2 3′ UTR; DFMO-treated mock cells compared to mock-untreated cells (FIG. 2B)
  HMGA2 luciferase activity: a reduction in HMGA2 luciferase was observed
[3]; probe U8_st
  Mean Expression Level Treatment, probe U8_st: 8.90
[3]; probe U8_x_st
  Mean Expression Level Treatment, probe U8_x_st: 8.86
[3]; probe U13_st
  Mean Expression Level Treatment, probe U13_st: 9.81
[3]; probe U50B_st
  Mean Expression Level Treatment, probe U50B_st: 10.72
[3]; probe U50B_x_st
  Mean Expression Level Treatment, probe U50B_x_st: 9.86
[3]; probe hsa-let-7i_st
  Mean Expression Level Treatment, probe hsa-let-7i_st: 10.74
[3]; probe hsa-miR-22_st
  Mean Expression Level Treatment, probe hsa-miR-22_st: 10.38
[3]; probe hsa-miR-193b_st
  Mean Expression Level Treatment, probe hsa-miR-193b_st: 8.79
[3]; probe hsa-miR-200a-star_st
  Mean Expression Level Treatment, probe hsa-miR-200a-star_st: 4.89
[3]; probe hsa-miR-221_st
  Mean Expression Level Treatment, probe hsa-miR-221_st: 12.50
[3]; probe hsa-miR-494_st
  Mean Expression Level Treatment, probe hsa-miR-494_st: 12.64
[3]; probe hsa-miR-517a_st
  Mean Expression Level Treatment, probe hsa-miR-517a_st: 1.47
[3]; probe hsa-miR-720_st
  Mean Expression Level Treatment, probe hsa-miR-720_st: 14.63
[3]; probe hsa-miR-886-3p_st
  Mean Expression Level Treatment, probe hsa-miR-886-3p_st: 11.26
Colon cancer cells; colon cancer cells, 96 h of DFMO treatment (FIG. 1A)
  intracellular polyamine pools: depletion of putrescine and spermidine
hsa-let-7i; HCT116 cells treated with DFMO, maximal at 96 h (FIG. 1C)
  expression of mature let-7i: Increased expression
LIN28; HCT116 cells, 5 mM DFMO, 72 h (FIG. 2A)
  LIN28 protein levels: lowered levels of LIN28
HCT116 cells; DFMO treatment, trypan blue exclusion
  cellular viability levels: not altered
HCT116 cells; HCT116 cells, 5 mM DFMO (FIG. 1B)
  cellular proliferation: reduce cellular proliferation
[2]
  number of tumors harboring Ki-ras mutations: 36%
HMGA2; HCT116 cells, 5 mM DFMO, 72 h (FIG. 2A, 2C)
  HMGA2 protein levels: robust HMGA2 depletion; also recorded: lower HMGA2 levels

## CC1=C(CC(=O)O)c2cc(F)ccc2/C1=C\c1ccc([S+](C)[O-])cc1 (stereo not shown) [sulindac, (Z)-5-fluoro-2-methyl-1-((4 (methylsulfinyl)phenyl)methylene) 1H-indene-3-acetic acid]
[4]; administered with food
  time to peak plasma levels, with food: 3 to 4 h
[4]; after oral administration
  fraction of the drug absorbed: about 90%
[4]; fasting patients
  time to peak plasma levels, fasting: about 2 h
[5]; abdominal pain and nausea most frequent
  patients with mild gastrointestinal effects: ~20%
[5]; human, in vivo
  patients with skin rash and pruritus: 5%

## anti-let-7 LNA: locked nucleic acid antisense oligo, phosphorothioate backbone, against let-7 seed region: ACTACCTC (SEQ ID NO: 1) (all phosphorothioate, sugars by position and methylation of C not given here; LNA oligo)
Hmga2 3′ UTR; 25 nM LNA, both DFMO treated and untreated HCT116 cells (FIG. 2B)
  wild-type Hmga2 3′ UTR luciferase activity: enhanced luciferase activity
Hmga2 3′ UTR; 25 nM LNA, irrespective of polyamine levels (FIG. 2B)
  mutated 3′ UTR Hmga2 luciferase activity: no observable effect
LIN28; 25 nM anti-let-7 LNA, HCT116 cells (FIG. 3C)
  LIN28 expression: little effect
HMGA2; LNA transfected DFMO-treated HCT116 cells (FIG. 2C)
  HMGA2 protein in DFMO-treated cells: rescued
HMGA2; LNA transfected mock-treated HCT116 cells (FIG. 2C, 3C), listed as LNAs targeting let-7
  HMGA2 protein levels, cells without DFMO: increase in HMGA2 protein levels; also recorded: increased

## NCCCCN [putrescine]
Colon cancer cells; exogenous putrescine supplementation of DFMO-treated cells (FIG. 1A)
  intracellular polyamine levels in DFMO-treated cells: restore intracellular polyamine levels
hsa-let-7i; HCT116, putrescine after DFMO administration (FIG. 1D)
  let-7i levels in DFMO treated cells: rescued
hsa-let-7i; HCT116, putrescine alone (FIG. 1D)
  let-7i levels in cultures not treated with drug: no observable effect
LIN28; putrescine supplementation alone (FIG. 2A)
  LIN28 protein levels in non-drug treated cells: did not alter
LIN28; putrescine supplementation in DFMO treated cells (FIG. 2A)
  LIN28 protein levels in DFMO treated cells: LIN28 levels comparable to vehicle control; also recorded: rescued
HCT116 cells; HCT116 cells, 50 μM putrescine with 5 mM DFMO (FIG. 1B)
  cellular proliferation of DFMO-treated cells: proliferation rates similar to control levels
